Results reported in ChEMBL document CHEMBL5038669, “Development of the First Covalent Monopolar Spindle Kinase 1 (MPS1/TTK) Inhibitor” (J Med Chem, 2022).
Activity calls are given as the source filed them. No cut-off for these calls is given here.

Experiments:
[1] = Microsomal stability in mouse liver microsomes assessed as half life at 100 uM pre-incubated for 5 mins with NADPH- regenerating system followed by liver microsomal addition and measured upto 120 mins by HPLC analysis; type: ADME, Microsome; settings: time <=125 min
[2] = target: T1, Dual specificity protein kinase TTK (Homo sapiens, UniProt P33981); assay: Inhibition of recombinant human full length N-terminal GST-fused MPS1 (1 to 857 residues) using histone H3 as substrate measured immediately in presence of DTT by TR-FRET assay
T1 sequence (P33981 whole entry): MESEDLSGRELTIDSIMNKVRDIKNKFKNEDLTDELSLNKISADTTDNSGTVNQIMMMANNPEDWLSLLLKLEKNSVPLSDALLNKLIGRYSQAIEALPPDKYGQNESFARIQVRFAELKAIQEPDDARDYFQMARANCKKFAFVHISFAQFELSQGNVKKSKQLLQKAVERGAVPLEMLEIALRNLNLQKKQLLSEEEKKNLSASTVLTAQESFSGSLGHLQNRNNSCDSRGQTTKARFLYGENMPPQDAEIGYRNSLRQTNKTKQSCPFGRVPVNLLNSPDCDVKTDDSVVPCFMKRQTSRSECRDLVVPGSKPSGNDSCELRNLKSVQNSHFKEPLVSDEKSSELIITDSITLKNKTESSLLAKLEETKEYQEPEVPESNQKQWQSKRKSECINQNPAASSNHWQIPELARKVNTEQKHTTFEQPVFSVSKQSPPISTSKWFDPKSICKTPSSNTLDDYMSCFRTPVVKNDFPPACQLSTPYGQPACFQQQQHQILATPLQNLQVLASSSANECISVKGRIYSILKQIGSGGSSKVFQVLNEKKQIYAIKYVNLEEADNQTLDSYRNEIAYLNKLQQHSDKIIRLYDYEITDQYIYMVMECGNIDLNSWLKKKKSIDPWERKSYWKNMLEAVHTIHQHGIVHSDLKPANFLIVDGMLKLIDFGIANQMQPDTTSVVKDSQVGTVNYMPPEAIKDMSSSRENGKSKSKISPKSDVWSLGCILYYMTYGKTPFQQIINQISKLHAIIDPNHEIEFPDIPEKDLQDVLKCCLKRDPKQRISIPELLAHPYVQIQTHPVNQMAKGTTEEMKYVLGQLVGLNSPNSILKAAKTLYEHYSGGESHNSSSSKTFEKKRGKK

[3] = target: T1, Dual specificity protein kinase TTK; assay: Inhibition of recombinant human full length N-terminal GST-fused MPS1 (1 to 857 residues) using histone H3 as substrate measured after 1 hr in presence of DTT by TR-FRET assay
[4] = target: T1, Dual specificity protein kinase TTK; assay: Inhibition of recombinant human full length N-terminal GST-fused MPS1 (1 to 857 residues) using histone H3 as substrate measured after 2 hrs in presence of DTT by TR-FRET assay
[5] = target: T1, Dual specificity protein kinase TTK; assay: Inhibition of recombinant human full length N-terminal GST-fused MPS1 (1 to 857 residues) using histone H3 as substrate measured after 4 hrs in presence of DTT by TR-FRET assay
[6] = target: T2, Dual specificity protein kinase TTK (Homo sapiens) (UniProt P33981); assay: Covalent inhibition of human full length N-terminal GST-fused MPS1 (1 to 857 residues) assessed as Kinact by TR-FRET assay
T2 sequence (whole entry): T1 sequence (P33981 whole entry)

[7] = target: T1, Dual specificity protein kinase TTK; assay: Covalent inhibition of human full length N-terminal GST-fused MPS1 (1 to 857 residues) assessed as inhibition constant by TR-FRET assay
[8] = target: T2, Dual specificity protein kinase TTK (Homo sapiens); assay: Covalent inhibition of human full length N-terminal GST-fused MPS1 (1 to 857 residues) assessed as Kinact/Ki ratio by TR-FRET assay
[9] = target: T1, Dual specificity protein kinase TTK; assay: Displacement of tracer K9 from NanoLuc-fused MPS1 (unknown origin) expressed in HEK293T cells measured after 2 hrs by NanoBRET assay; type: cell-based
[10] = target: Fibroblast growth factor receptor 4 (Homo sapiens, UniProt P22455); assay: Inhibition of human recombinant FGFR4 expressed in Sf9 insect cells using poly[Glu:Tyr] 4:1 as substrate in presence of [33P]-ATP by radiometric hotspot kinetic assay
[11] = target: MAP kinase-activated protein kinase 2 (Homo sapiens, UniProt P49137); assay: Inhibition of human recombinant MAPKAPK2 expressed in Sf9 insect cells using [KKLNRTLSVA] as substrate in presence of [33P]-ATP by radiometric hotspot kinetic assay
[12] = target: MAP kinase-activated protein kinase 3 (Homo sapiens, UniProt Q16644); assay: Inhibition of human recombinant MAPKAPK3 expressed in Sf9 insect cells using [KKLNRTLSVA] as substrate in presence of [33P]-ATP by radiometric hotspot kinetic assay
[13] = target: Ribosomal protein S6 kinase beta-2 (Homo sapiens, UniProt Q9UBS0); assay: Inhibition of human recombinant P70S6Kbeta expressed in Sf9 insect cells using [KKRNRTLTK] as substrate in presence of [33P]-ATP by radiometric hotspot kinetic assay
[14] = Stability of compound in glutathione at pH 7.4 assessed as half life by HPLC analysis; type: physicochemical; settings: glutathione solution, time 5 min
MDA-MB-231 = assay: Cytotoxicity against human MDA-MB-231cells assessed as reduction in cell viability incubated for 5 days by XTT assay; type: functional, cell-based; settings: time 5.0 day
MDA-MB-468 = assay: Cytotoxicity against human MDA-MB-468 cells assessed as reduction in cell viability incubated for 5 days by XTT assay; type: functional, cell-based; settings: time 5.0 day
HCT-15 = assay: Cytotoxicity against human HCT-15 cells assessed as reduction in cell viability incubated for 5 days by XTT assay; type: functional, cell-based; settings: time 5.0 day
HCT-116 [15] = assay: Cytotoxicity against human HCT-116 cells assessed as reduction in cell viability incubated for 5 days by XTT assay; type: functional, cell-based; settings: time 5.0 day
HCT-116 [16] = assay: Cell cycle arrest in human HCT-116 cells assessed as accumulation in G2/M phase incubated for 3 days; type: functional, cell-based; settings: time 3.0 day
HCT-116 [17] = assay: Induction of apoptosis in human HCT-116 cells assessed as upregulation of p53 expression measured after 3 days by Western blot analysis; type: functional, cell-based; settings: time 3.0 day
HCT-116 [18] = assay: Induction of apoptosis in human HCT-116 cells assessed as upregulation of p21 expression measured after 3 days by Western blot analysis; type: functional, cell-based; settings: time 3.0 day
HCT-116 [19] = assay: Induction of apoptosis in human HCT-116 cells assessed as upregulation of phospho-gammaH2A.X expression measured after 3 days by Western blot analysis; type: functional, cell-based; settings: time 3.0 day
HCT-116 [20] = assay: Induction of apoptosis in human HCT-116 cells assessed as down regulation of cyclin B1 expression measured after 3 days by Western blot analysis; type: functional, cell-based; settings: time 3.0 day
HCT-116 [21] = assay: Induction of apoptosis in human HCT-116 cells assessed as increase in cleaved PARP level measured for 3 days by Western blot analysis; type: functional, cell-based; settings: time 3.0 day
SW-620 = assay: Antiproliferative activity against human SW-620 cells; type: functional, cell-based
Huh-7 = assay: Induction of apoptosis in human Huh-7 cells assessed as down regulation of cyclin B1 expression at 200 nM measured upto 5 days by Western blot analysis; type: functional, cell-based; settings: time day <=5
Hep 3B2 [22] = assay: Induction of apoptosis in human Hep3B cells assessed as down regulation of cyclin B1 expression at 200 nM measured upto 5 days by Western blot analysis; type: functional, cell-based; settings: time day <=5
SNU-387 = assay: Induction of apoptosis in human SNU-387 cells assessed as down regulation of cyclin B1 expression at 200 nM measured upto 5 days by Western blot analysis; type: functional, cell-based; settings: time day <=5
Hep 3B2 [23] = assay: Induction of apoptosis in human Hep3B cells assessed as increase in cleaved PARP level at 200 nM measured upto 5 days by Western blot analysis; type: functional, cell-based; settings: time day <=5

Sequence of Ribosomal protein S6 kinase beta-2 (Q9UBS0 whole entry): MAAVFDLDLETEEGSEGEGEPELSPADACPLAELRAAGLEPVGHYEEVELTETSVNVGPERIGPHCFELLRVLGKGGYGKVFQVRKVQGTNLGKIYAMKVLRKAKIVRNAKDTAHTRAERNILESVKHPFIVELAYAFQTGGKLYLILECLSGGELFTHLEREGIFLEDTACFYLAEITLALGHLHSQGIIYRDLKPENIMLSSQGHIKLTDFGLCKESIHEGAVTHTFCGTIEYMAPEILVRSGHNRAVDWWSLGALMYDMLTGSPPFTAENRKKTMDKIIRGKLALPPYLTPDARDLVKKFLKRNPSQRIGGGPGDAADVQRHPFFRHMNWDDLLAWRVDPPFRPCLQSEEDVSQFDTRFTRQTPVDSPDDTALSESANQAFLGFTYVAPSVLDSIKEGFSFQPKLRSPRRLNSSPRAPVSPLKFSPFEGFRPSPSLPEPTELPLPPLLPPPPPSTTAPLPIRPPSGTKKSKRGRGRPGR
Sequence of MAP kinase-activated protein kinase 3 (Q16644 whole entry): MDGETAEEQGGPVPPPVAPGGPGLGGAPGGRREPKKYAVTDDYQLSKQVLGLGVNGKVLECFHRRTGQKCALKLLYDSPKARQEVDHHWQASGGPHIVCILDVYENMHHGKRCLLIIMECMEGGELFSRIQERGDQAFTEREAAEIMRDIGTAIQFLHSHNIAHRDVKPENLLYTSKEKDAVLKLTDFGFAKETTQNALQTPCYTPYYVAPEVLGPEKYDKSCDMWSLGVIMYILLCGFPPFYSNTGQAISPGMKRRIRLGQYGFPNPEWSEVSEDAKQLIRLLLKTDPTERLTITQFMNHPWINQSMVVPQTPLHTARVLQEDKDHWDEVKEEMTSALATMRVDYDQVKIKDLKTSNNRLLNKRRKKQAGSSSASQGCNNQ
Sequence of MAP kinase-activated protein kinase 2 (P49137 whole entry): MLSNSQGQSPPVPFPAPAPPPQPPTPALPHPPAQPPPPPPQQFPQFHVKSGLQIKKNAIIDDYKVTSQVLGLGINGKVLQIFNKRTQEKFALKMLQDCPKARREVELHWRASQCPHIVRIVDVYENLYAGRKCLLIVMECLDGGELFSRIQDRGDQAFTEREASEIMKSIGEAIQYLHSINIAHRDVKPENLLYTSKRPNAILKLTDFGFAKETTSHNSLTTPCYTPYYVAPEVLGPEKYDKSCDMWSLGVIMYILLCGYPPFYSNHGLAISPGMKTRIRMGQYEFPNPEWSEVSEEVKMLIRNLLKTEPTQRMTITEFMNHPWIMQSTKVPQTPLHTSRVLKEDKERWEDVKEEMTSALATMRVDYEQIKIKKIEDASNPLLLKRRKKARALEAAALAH
Sequence of Fibroblast growth factor receptor 4 (P22455 whole entry): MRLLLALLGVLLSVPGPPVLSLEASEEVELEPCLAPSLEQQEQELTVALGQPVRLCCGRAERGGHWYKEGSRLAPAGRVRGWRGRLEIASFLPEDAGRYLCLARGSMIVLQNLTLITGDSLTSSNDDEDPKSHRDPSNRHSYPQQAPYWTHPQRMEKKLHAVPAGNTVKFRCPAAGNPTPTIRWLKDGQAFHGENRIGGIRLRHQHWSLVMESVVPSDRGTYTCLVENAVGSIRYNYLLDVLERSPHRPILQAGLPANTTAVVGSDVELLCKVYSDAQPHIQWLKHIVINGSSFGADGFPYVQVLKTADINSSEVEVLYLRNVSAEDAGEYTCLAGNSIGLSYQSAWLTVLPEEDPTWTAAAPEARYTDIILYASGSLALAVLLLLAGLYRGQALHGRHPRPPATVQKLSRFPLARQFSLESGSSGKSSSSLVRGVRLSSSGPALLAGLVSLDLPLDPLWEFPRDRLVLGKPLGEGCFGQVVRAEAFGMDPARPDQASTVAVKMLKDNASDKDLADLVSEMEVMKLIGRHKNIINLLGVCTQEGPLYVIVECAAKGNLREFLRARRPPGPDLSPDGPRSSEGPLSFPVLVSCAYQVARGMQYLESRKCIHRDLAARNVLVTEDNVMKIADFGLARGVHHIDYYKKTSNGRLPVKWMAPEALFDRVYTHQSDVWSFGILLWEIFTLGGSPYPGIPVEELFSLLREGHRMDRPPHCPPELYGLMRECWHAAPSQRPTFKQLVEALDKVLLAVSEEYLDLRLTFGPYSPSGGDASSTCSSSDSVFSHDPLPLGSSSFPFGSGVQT

C=CC(=O)Nc1cc(N2CCN(C)CC2)ccc1Nc1ncc2c(n1)-n1ccc(C(=O)Nc3c(CC)cccc3CC)c1CC2
half-life at 100 µM [1]: 1 h | IC50 [2]: 40.2 nM | IC50 [3]: 28.1 nM | IC50 [4]: 20 nM | IC50 [5]: 13.8 nM | Kinact [6]: 0.000242 s⁻¹ | Ki [7]: 14.2 nM | Ratio [8]: 1.71 10^4/M/s | IC50 [9]: 22.4 nM | IC50 [10]: 2750 nM | IC50 [11]: > 5000 nM | IC50 [12]: > 5000 nM | IC50 [13]: 1650 nM | half-life at 100 µM [14]: 84.5 h | Activity (MDA-MB-231): Active | Activity (MDA-MB-468): Active | Activity (HCT-15): Active | Activity (HCT-116 [15]): Active | Activity (HCT-116 [16]): Active | Activity (HCT-116 [17]): Active | Activity (HCT-116 [18]): Active | Activity (HCT-116 [19]): Active | Activity (HCT-116 [20]): Active | Activity (HCT-116 [21]): Active | Activity (SW-620): Active | Activity (Huh-7): Active | Activity (Hep 3B2 [22]): Active | Activity (SNU-387): Active | Activity (Hep 3B2 [23]): Active
